From US12679843B2, “Pyrrolopyrimidine amines as complement inhibitors” (BioCryst Pharmaceuticals, Inc., priority 2020, dated 2026) come the findings set out here.

Usually IC50 stands for the concentration that gives 50% inhibition.

The target in this experiment is Factor D (Homo sapiens, UniProt P00746). The experiment is described as follows: Factor D esterolytic assay (Z-Lys-SBzl thioester substrate, DTNB, 405 nm). It counts as biochemical. The note with it: substrate Z-Lys-SBzl 1.29 mM, 100 mM HEPES, 500 mM NaCl, pH 7.5, 10% DMSO, tested a minimum of three times. In outline:
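Run in pH 7.5 HEPES (100 mM) with 500 mM NaCl and 10% DMSO, with compound preincubated at room temperature or not before adding 1.29 mM Z-Lys-SBzl. Free thiol released by Factor D reacts with DTNB, and rate is followed at 405 nm minus 690 nm over 600 s. IC50 derives from rate-based inhibition, minimum three replicates.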

Chain of Factor D (P00746 26-253): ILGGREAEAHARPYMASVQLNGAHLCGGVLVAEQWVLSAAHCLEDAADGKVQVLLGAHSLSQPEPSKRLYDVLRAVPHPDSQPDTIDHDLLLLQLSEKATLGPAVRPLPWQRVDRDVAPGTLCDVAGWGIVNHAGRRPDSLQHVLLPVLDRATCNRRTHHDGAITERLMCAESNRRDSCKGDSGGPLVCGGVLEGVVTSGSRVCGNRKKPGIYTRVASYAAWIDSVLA

As to `C[C@@]12C[C@@H](C(=O)Nc3cccc(Br)n3)N(C(=O)Cn3c4ccc(CCC(=O)O)cc4c4c(N)ncnc43)[C@@H]1C2` [Compound 214b, 3-(4-amino-9-(2-((1R,3S,5R)-3-((6-bromopyridin-2-yl)carbamoyl)-5-methyl-2-azabicyclo[3.1.0]hexan-2-yl)-2-oxoethyl)-9H-pyrimido[4,5-b]indol-6-yl)propanoic acid], the IC50 was < 0.1 µM. The figure for `CN(C)c1ccc2c(c1)c1c(N)ncnc1n2CC(=O)N1[C@H](C(=O)Nc2cccc(Br)n2)C[C@@]2(C)C[C@@H]12` [Compound 215g, (1R,3S,5R)-2-(2-(4-amino-6-(dimethylamino)-9H-pyrimido[4,5-b]indol-9-yl)acetyl)-N-(6-bromopyridin-2-yl)-5-methyl-2-azabicyclo[3.1.0]hexane-3-carboxamide] is < 0.1 µM; for `COC(=O)c1cc(C)c2c(c1)c1c(N)ncnc1n2CC(=O)N1[C@H](C(=O)Nc2cccc(Br)n2)C[C@@]2(C)C[C@@H]12` [Compound 216g, methyl 4-amino-9-(2-((1R,3S,5R)-3-((6-bromopyridin-2-yl)carbamoyl)-5-methyl-2-azabicyclo[3.1.0]hexan-2-yl)-2-oxoethyl)-8-methyl-9H-pyrimido[4,5-b]indole-6-carboxylate] it is < 0.1 µM. The figure for `COC(=O)c1cc(C)c2c(c1)c1c(N)ncnc1n2CC(=O)N1[C@@H]2C[C@@H]2C[C@H]1C(=O)Nc1cccc(Br)n1` [Compound 217a, methyl 4-amino-9-(2-((1R,3S,5R)-3-((6-bromopyridin-2-yl)carbamoyl)-2-azabicyclo[3.1.0]hexan-2-yl)-2-oxoethyl)-8-methyl-9H-pyrimido[4,5-b]indole-6-carboxylate] is < 0.1 µM; for `Cc1cc(C(=O)O)cc2c3c(N)ncnc3n(CC(=O)N3[C@@H]4C[C@@H]4C[C@H]3C(=O)Nc3cccc(Br)n3)c12` [Compound 218a, 4-amino-9-(2-((1R,3S,5R)-3-((6-bromopyridin-2-yl)carbamoyl)-2-azabicyclo[3.1.0]hexan-2-yl)-2-oxoethyl)-8-methyl-9H-pyrimido[4,5-b]indole-6-carboxylic acid] it is < 0.1 µM. The figure for `Cc1cc(C(=O)O)cc2c3c(N)ncnc3n(CC(=O)N3[C@H](C(=O)Nc4cccc(Br)n4)C[C@@]4(C)C[C@@H]34)c12` [Compound 219a, 4-amino-9-(2-((1R,3S,5R)-3-((6-bromopyridin-2-yl)carbamoyl)-5-methyl-2-azabicyclo[3.1.0]hexan-2-yl)-2-oxoethyl)-8-methyl-9H-pyrimido[4,5-b]indole-6-carboxylic acid] is < 0.1 µM; for `Nc1ncnc2c1c1cccc(C(=O)O)c1n2CC(=O)N1[C@@H]2C[C@@H]2C[C@H]1C(=O)Nc1cccc(Br)n1` [Compound 220a, 4-amino-9-(2-((1R,3S,5R)-3-((6-bromopyridin-2-yl)carbamoyl)-2-azabicyclo[3.1.0]hexan-2-yl)-2-oxoethyl)-9H-pyrimido[4,5-b]indole-8-carboxylic acid] it is 0.1 to 1 µM; for `COC(=O)c1cccc2c1c1c(N)ncnc1n2CC(=O)N1[C@H](C(=O)Nc2cccc(Br)n2)C[C@@]2(C)C[C@@H]12` [Compound 221c, methyl 4-amino-9-(2-((1R,3S,5R)-3-((6-bromopyridin-2-yl)carbamoyl)-5-methyl-2-azabicyclo[3.1.0]hexan-2-yl)-2-oxoethyl)-9H-pyrimido[4,5-b]indole-5-carboxylate] it is < 0.1 µM. As to `C[C@@]12C[C@@H](C(=O)Nc3cccc(Br)n3)N(C(=O)Cn3c4cccc(C(=O)O)c4c4c(N)ncnc43)[C@@H]1C2` [Compound 222a, 4-amino-9-(2-((1R,3S,5R)-3-((6-bromopyridin-2-yl)carbamoyl)-5-methyl-2-azabicyclo[3.1.0]hexan-2-yl)-2-oxoethyl)-9H-pyrimido[4,5-b]indole-5-carboxylic acid], the IC50 is > 1 µM.

Take `COC(=O)c1cccc2c3c(N)ncnc3n(CC(=O)N3[C@H](C(=O)Nc4cccc(Br)n4)C[C@@]4(C)C[C@@H]34)c12` [Compound 223a, methyl 4-amino-9-(2-((1R,3S,5R)-3-((6-bromopyridin-2-yl)carbamoyl)-5-methyl-2-azabicyclo[3.1.0]hexan-2-yl)-2-oxoethyl)-9H-pyrimido[4,5-b]indole-8-carboxylate]: the half-inhibitory concentration (IC50) is < 0.1 µM.

In the case of `Nc1ncnc2c1c1c(C(=O)O)cccc1n2CC(=O)N1[C@@H]2C[C@@H]2C[C@H]1C(=O)Nc1cccc(Br)n1` [Compound 224b, 4-amino-9-(2-((1R,3S,5R)-3-((6-bromopyridin-2-yl)carbamoyl)-2-azabicyclo[3.1.0]hexan-2-yl)-2-oxoethyl)-9H-pyrimido[4,5-b]indole-5-carboxylic acid], the half-maximal inhibitory concentration (IC50) was > 1 µM.

In the case of `COC(=O)Nc1ccc2c(c1)c1c(N)ncnc1n2CC(=O)N1[C@@H]2C[C@@H]2C[C@H]1C(=O)Nc1cccc(Br)n1` [Compound 225e, methyl (4-amino-9-(2-((1R,3S,5R)-3-((6-bromopyridin-2-yl)carbamoyl)-2-azabicyclo[3.1.0]hexan-2-yl)-2-oxoethyl)-9H-pyrimido[4,5-b]indol-6-yl)carbamate], the IC50 is < 0.1 µM. Take `Nc1ncnc2c1c1cc(-c3ccncc3)ccc1n2CC(=O)N1[C@@H]2C[C@@H]2C[C@H]1C(=O)Nc1cccc(Br)n1` [Compound 226c, (1R,3S,5R)-2-(2-(4-amino-6-(pyridin-4-yl)-9H-pyrimido[4,5-b]indol-9-yl)acetyl)-N-(6-bromopyridin-2-yl)-2-azabicyclo[3.1.0]hexane-3-carboxamide]: the IC50 was < 0.1 µM. Regarding `Nc1ncnc2c1c1ccc(-c3ccccc3)cc1n2CC(=O)N1[C@@H]2C[C@@H]2C[C@H]1C(=O)Nc1cccc(Br)n1` [Compound 227c, (1R,3S,5R)-2-(2-(4-amino-7-phenyl-9H-pyrimido[4,5-b]indol-9-yl)acetyl)-N-(6-bromopyridin-2-yl)-2-azabicyclo[3.1.0]hexane-3-carboxamide], the concentration for half-maximal inhibition (IC50) was < 0.1 µM. As for `C[C@@]12C[C@@H](C(=O)Nc3cccc(Br)n3)N(C(=O)Cn3c4cc(-c5ccccc5)ccc4c4c(N)ncnc43)[C@@H]1C2` [Compound 228a, (1R,3S,5R)-2-(2-(4-amino-7-phenyl-9H-pyrimido[4,5-b]indol-9-yl)acetyl)-N-(6-bromopyridin-2-yl)-5-methyl-2-azabicyclo[3.1.0]hexane-3-carboxamide], the half-maximal inhibitory concentration (IC50) was < 0.1 µM. Under `Cc1cc(-c2ccccc2)cc2c3c(N)ncnc3n(CC(=O)N3[C@@H]4C[C@@H]4C[C@H]3C(=O)Nc3cccc(Br)n3)c12` [Compound 229c, (1R,3S,5R)-2-(2-(4-amino-8-methyl-6-phenyl-9H-pyrimido[4,5-b]indol-9-yl)acetyl)-N-(6-bromopyridin-2-yl)-2-azabicyclo[3.1.0]hexane-3-carboxamide] stands < 0.1 µM; under `Cc1cc(-c2ccccc2)cc2c3c(N)ncnc3n(CC(=O)N3[C@H](C(=O)Nc4cccc(Br)n4)C[C@@]4(C)C[C@@H]34)c12` [Compound 230a, (1R,3S,5R)-2-(2-(4-amino-8-methyl-6-phenyl-9H-pyrimido[4,5-b]indol-9-yl)acetyl)-N-(6-bromopyridin-2-yl)-5-methyl-2-azabicyclo[3.1.0]hexane-3-carboxamide], < 0.1 µM.

On to `C[C@@]12C[C@@H](C(=O)Nc3cccc(Br)n3)N(C(=O)Cn3c4ccc(C(F)(F)F)nc4c4c(N)ncnc43)[C@@H]1C2` [Compound 231g, (1R,3S,5R)-2-(2-(4-amino-6-(trifluoromethyl)-9H-pyrido[2′,3′:4,5]pyrrolo[2,3-d]pyrimidin-9-yl)acetyl)-N-(6-bromopyridin-2-yl)-5-methyl-2-azabicyclo[3.1.0]hexane-3-carboxamide], for which the IC50 was < 0.1 µM. Consider `C[C@@]12C[C@@H](C(=O)Nc3cccc(Br)n3)N(C(=O)Cn3c4ncnc(N)c4c4cccc(C(=O)O)c43)[C@@H]1C2` [Compound 232a, 4-amino-9-(2-((1R,3S,5R)-3-((6-bromopyridin-2-yl)carbamoyl)-5-methyl-2-azabicyclo[3.1.0]hexan-2-yl)-2-oxoethyl)-9H-pyrimido[4,5-b]indole-8-carboxylic acid], for which the IC50 is < 0.1 µM. Regarding `Nc1ncnc2c1cc1n2C(C(=O)N2[C@@H](C(=O)Nc3cccc(Br)n3)C[C@@H]3C[C@@H]32)Oc2ccccc2-1` (stereo partly drawn) [Compound 233h, (1S,3R,5S)-2-(11-amino-6H-benzo[e]pyrimido[5′,4′:4,5]pyrrolo[1,2-c][,3]oxazine-6-carbonyl)-N-(6-bromopyridin-2-yl)-2-azabicyclo[3.1.0]hexane-3-carboxamide], the half-inhibitory concentration (IC50) is < 0.1 µM. The figure for `Nc1ncnc2c1c1nc(C(F)(F)F)ccc1n2CC(=O)N1[C@@H]2C[C@@H]2C[C@H]1C(=O)Nc1cccc(Br)n1` [Compound 234a, (1R,3S,5R)-2-(2-(4-amino-6-(trifluoromethyl)-9H-pyrido[2′,3′:4,5]pyrrolo[2,3-d]pyrimidin-9-yl)acetyl)-N-(6-bromopyridin-2-yl)-2-azabicyclo[3.1.0]hexane-3-carboxamide] is < 0.1 µM.

With `O=C1NCc2cnc3c(ccn3CC(=O)N3C[C@H](F)C[C@H]3C(=O)NCc3cccc(Cl)c3F)c2N1` [Compound 235a, (2S,4R)—N-(3-chloro-2-fluorobenzyl)-4-fluoro-1-(2-(2-oxo-3,4-dihydro-1H-pyrrolo[3′,2′:5,6]pyrido[4,3-d]pyrimidin-7 (2H)-yl)acetyl)pyrrolidine-2-carboxamide], the IC50 was > 1 µM. The figure for `Nc1ncnc2c1c1cc(Cl)ccc1n2CC(=O)N1[C@@H]2C[C@@H]2C[C@H]1C(=O)Nc1cccc(Br)n1` [Compound 236f, (1R,3S,5R)-2-(2-(4-amino-6-chloro-9H-pyrimido[4,5-b]indol-9-yl)acetyl)-N-(6-bromopyridin-2-yl)-2-azabicyclo[3.1.0]hexane-3-carboxamide] is < 0.1 µM.
